{
  "source": "patent US12295973B2",
  "about": "(Fred Hutchinson Cancer Center, priority 2017, dated 2025)",
  "format_in_all_cases": "in vivo, mouse",
  "key": {"[1]": {"experiment": "Hormone levels (testosterone, LH, FSH) after L-TBI"}, "[2]": {"system": "LT-HSCs", "experiment": "Cell cycle status of HSCs (Ki-67/DAPI) after L-TBI", "conditions": "vs vehicle", "source_text": "The control of HSC self-renewal, differentiation, and proliferation is a tightly regulated process crucial for maintaining the HSC pool^29-34. This is particularly relevant during hematopoietic injuries (such as high dose or repeated rounds of chemotherapy or irradiation) when dormant HSCs transiently start to proliferate to replenish blood cells as unbalanced HSC proliferation can lead to stem cell exhaustion and long-term myelosuppression^35-37. […] Although there is a clear need for HSC proliferation to ensure regenerative hematopoiesis, previous reports have also shown that induction of HSC quiescence after high-dose irradiation correlates with increased hematopoietic recovery and enhanced mouse survival^35,37,41.\nFlow cytometry and cell cycle analysis: Monoclonal antibodies recognizing the following markers were used for flow cytometric analyses and cell sorting of murine cells (LSR II or FACSAria III, BD Biosciences): (from BD Pharmingen) c-kit (2B8), Sca-1 (D7), CD11b (M1/70), CD11c (HL3), CD19 (ID3), CD3ϵ (145-2C11), CD34 (RAM34), CD45 (30-F11), CD45.1 (A20), CD45.2 (104), CD48 (HM48-1), CD62L (MEL-14), CD135 (A2F10.1), Gr-1 (RB6-8C5), NK1.1 (PK136), TER-119 (TER-119); (from eBioscience) CD127 (A7R34), CD150 (mShad150); (from Invitrogen) B220 (RA3-6B2) and streptavidin (N/A). […]"}, "[3]": {"system": "LT-HSCs", "experiment": "Gene expression in LT-HSCs purified after 300cGy irradiation", "method": "To gain some insights in to the molecular changes mediated by LHRH-Ant treatment on HSCs LT-HSCs were purified after 300cGy irradiation and expression of key genes associated with quiescence, proliferation, DNA damage response and apoptosis of HSCs was assessed. […] Importantly, both Bcl-2 and Mcl-1 have been implicated in regulating HSC quiescence and survival respectively^45,46.\nReal time PCR: Reverse transcription-PCR was performed with QuantiTect reverse transcription kit (QIAGEN). For real-time PCR, specific primer and probe sets were obtained from Applied Biosystems as follows: β-actin (Mm01205647_g1); HPRT (Mm00446968_m1); AR (Mm00442688_m1); FSHR (Mm00442819_m1); LHCGR (Mm00442931_m1). PCR was done on ABI 7500 (Applied Biosystems) or Step-One Plus (Applied Biosystems) with TaqMan Universal PCR Master Mix (Applied Biosystems). Relative amounts of mRNA were calculated by the Ct method.\nStatistics: Bars and error bars represent the mean+SEM for the various groups. For most experiments, nonparametric testing was performed if normal distribution could not be assumed. All tests performed are two sided. Statistical analysis between two groups was performed with the nonparametric, unpaired Mann-Whitney U test. Tests performed are two sided, except for gene category analysis. Differential expression of gene categories was computed using Fisher's method and the input p-value for each individual gene from a category is computed from a one sided test. Survival data were analyzed with the Mantel-Cox log-rank test. Parametric t test was used for FIG. 6H right panel. The experiments were not randomized and the investigators were not blinded to the group allocation during the experiments or when assessing the outcomes. To ensure adequate power for statistical analysis at least five samples per group were tested. In general variation within groups and between experiments was low, however to take into account inter-experimental variation all experiments were performed at least twice. To account for intra-experimental variation, particularly for in vitro studies, several wells per conditions were assessed with primary sample material coming from at least two different mice. No samples or animals were excluded from the analysis except for mouse peripheral blood analysis where outliers were detected prior to the analysis with two-sided Grubbs' test for outliers (GraphPad). All statistics were calculated and display graphs generated using GraphPad 6."}},
  "note": "Where a SMILES comes first, the peptide text is derived from it. [ ]: non-standard residue; d: D form. The star is where a group is joined. dPhe(4-NHCONH2) = NC(=O)Nc1ccc(C[C@@H](N)C(=O)O)cc1; Dihydroorotyl(S) = O=C1C[C@@H](C(=O)*)NC(=O)N1; dPhe(4-Cl) = N[C@H](Cc1ccc(Cl)cc1)C(=O)O; Phe(4-NH2) = Nc1ccc(C[C@H](N)C(=O)O)cc1; d2Nal = N[C@H](Cc1ccc2ccccc2c1)C(=O)O; Lys(iPr) = CC(C)NCCCC[C@H](N)C(=O)O; d3Pal = N[C@H](Cc1cccnc1)C(=O)O",
  "data": [
    {"smiles": "CC(=O)N[C@H](Cc1ccc2ccccc2c1)C(=O)N[C@H](Cc1ccc(Cl)cc1)C(=O)N[C@H](Cc1cccnc1)C(=O)N[C@@H](CO)C(=O)N[C@@H](Cc1ccc(NC(=O)[C@@H]2CC(=O)NC(=O)N2)cc1)C(=O)N[C@H](Cc1ccc(NC(N)=O)cc1)C(=O)N[C@@H](CC(C)C)C(=O)N[C@@H](CCCCNC(C)C)C(=O)N1CCC[C@H]1C(=O)N[C@H](C)C(N)=O", "note": "[LHRH-Ant, Degarelix] (Ac-[d2Nal][dPhe(4-Cl)][d3Pal]S[Phe(4-NH2)](Dihydroorotyl(S))[dPhe(4-NHCONH2)]L[Lys(iPr)]P[dA]-NH2)", "values": [
      {"measurement": "level of testosterone", "setting": "[1]; after radiation", "value": "did not significantly lower the level of testosterone"},
      {"measurement": "level of FSH", "setting": "[1]; irradiated mice", "value": "dramatically decreased"},
      {"measurement": "level of LH", "setting": "[1]; irradiated mice", "value": "dramatically decreased"},
      {"measurement": "proliferative HSCs", "setting": "[2]", "value": "fewer proliferative HSCs"},
      {"measurement": "proportion of Ki-67− quiescent LT-HSCs", "setting": "[2]", "value": "significantly higher proportion"},
      {"measurement": "expression level of Cdknla (p21)", "setting": "[3]", "value": "significantly higher levels"},
      {"measurement": "expression level of Hest", "setting": "[3]", "value": "significantly higher levels"},
      {"measurement": "expression of anti-apoptotic gene Bcl2", "setting": "[3]", "value": "significantly increased"},
      {"measurement": "expression of anti-apoptotic gene Mcl1", "setting": "[3]", "value": "significantly increased"},
      {"measurement": "expression of genes related to apoptosis", "setting": "[3]; p=0.004", "value": "significant overexpression"},
      {"measurement": "expression of genes related to quiescence", "setting": "[3]; p=0.02", "value": "significant overexpression"}
    ]}
  ]
}
